Laboratory results from patent US12649754B2, “Prodrugs of 2-(3,5-dichloro-1-methyl-indazol-4-yl)-1-[(1S,3R)-3-(hydroxymethyl)-5-(1-hydroxy-1-methyl-ethyl)-1-methyl-3,4-dihydro-1H-isoquinolin-2-yl]ethanone” (UCB Biopharma SRL, priority 2020, dated 2026).
In brackets after ≈: the same amount, converted by molar mass. Like-named read-outs stand apart in the source and are kept apart here.

Assays:
[1] = In vivo bioavailability of oral suspensions of prodrugs, plasma LC/MS; details: male Sprague-Dawley rats, single oral dose of suspension corresponding to 3 mg/kg of compound (I), plasma 0.12 h to 8 h
Description: The formulation vehicle used in the following suspension is a mixture of 1% (w/v) methylcellulose (400 cps), 0.1% (weight/volume) TWEEN® 80, 0.1% (w/v) Antifoam 1510 US in 25 mM phosphate buffer pH 3.0 in water. […]
The solution is homogenized by sonication during 1 minute, repeated 3 times.
Three male Sprague-Dawley rats were administered the respective suspensions of (II-A), (II-B) and (II-C), as described in paragraph 7.1 above, at a single oral dose corresponding to 3 mg/kg of compound of formula (I).
Plasma samples were collected 0.12 h, 0.25 h, 0.5 h, 1 h, 2 h, 4 h and 8 h following dosing.
Plasma concentrations of compound (I) and respective compounds (II-A), (II-B) and (II-C) were quantified by LC/MS (liquid chromatography/mass spectrometry).

[2] = Solubility by shake flask method (24 h, HPLC); type: physicochemical; details: n=3 mean; for solubility at 24 h: thermodynamic from solid, read-out: Solubility Measurements (mean value) (24 h)
Description: The solubility of compounds of formula (Ia) obtained according to Example 2.12. and compounds of formula (II-A), (II-Ax) and (II-B) obtained respectively according to Examples 3.2. and 4.2., was determined in different media while using the shake flask method. An excess of solids, for (II-Ax) and (II-B) equivalent to a concentration of compound of formula (I) of 5 mg/mL, and for (II-A) equivalent to a concentration of compound of formula (I) of 1 mg/mL was suspended in 5 mL of buffer/biorelevant media as specifically described in Table 1 and incubated in a sealed glass vial (10 mL) for 24 h at room temperature or 37° C. (as indicated below) in a climatic chamber equipped with a rotary mixer. The 24 h time point was assumed to have reached solubility, at which time the suspension was filtered through a 0.45-μm ultra free filter (Merck Millipore) and the drug content was determined by HPLC. The solubility of compounds (Ia), (II-A), (II-Ax) and (II-B) was determined in triplicate (n=3) and mean value calculated.
The media tested are respectively water, phosphate buffer, FasSGF, FASSIF-V2 and FeSSIF-V2. FasSG is fasted condition gastric fluid. FasSGF is prepared at pH 1.6 and contains 0.08 mM Taurocholate, 0.02 mM phospholipids, 34 mM sodium and 59 mM chloride. FaSSIF-V2 and FeSSIF-V2 are Fasted and Fed State Biorelevant Media, respectively. FaSSIF-V2 is prepared at pH 6.5 and contains 3 mM Taurocholate, 0.2 mM Phospholipids, 106 mM Sodium, 69 mM Chloride and 19 mM Maleic acid. FeSSIF-V2 is prepared at pH 5.8 and contains 10 mM Taurocholate, 2 mM Phospholipids, 0.8 mM Oleate, 5 mM Glycerol monoleate, 218 mM Sodium, 125 mM Chloride and 55 mM Maleic acid.

[3] = phosphate buffer, pH 4, aqueous buffer, Phosphate buffer (50 mM), pH 4.0, RT
[4] = water, pH 7, water, Water, pH 7.0, RT
[5] = phosphate buffer, pH 6.5, aqueous buffer, Phosphate buffer (50 mM), pH 6.5, RT
[6] = FaSSIF-V2, 37 °C, pH 6.5, fassif, FaSSIF-V2, pH 6.5, 37° C.
[7] = FasSGF, 37 °C, pH 1.6, fassgf or other biorelevant, FasSGF, pH 1.6, 37° C.
[8] = FeSSIF-V2, 37 °C, pH 5.8, fessif, FeSSIF-V2, pH 5.8, 37° C.

Row | Structure (SMILES) | cleavage of prodrug into compound of formula (I) in plasma [1] | Solubility Measurements (mean value) (24 h) ([2]; FaSSIF-V2, pH 6.5, 37° C.) [mg/mL] | solubility at 24 h [2, 3] [mg/mL] | solubility at 24 h [2, 4] [mg/mL] | Solubility Measurements (mean value) (24 h) ([2]; FeSSIF-V2, pH 5.8, 37° C.) [mg/mL] | solubility at 24 h [2, 5] [mg/mL] | solubility at 24 h [2, 6] [mg/mL] | solubility at 24 h [2, 7] [mg/mL] | solubility at 24 h [2, 8] [mg/mL]
1 | C[C@H]1c2cccc(C(C)(C)O)c2C[C@H](COP(=O)(O)O)N1C(=O)Cc1c(Cl)ccc2c1c(Cl)nn2C [(II-A), [(1S,3R)-2-[2-(3,5-dichloro-1-methyl-indazol-4-yl)acetyl]-5-(1-hydroxy-1-methyl-ethyl)-1-methyl-3,4-dihydro-1H-isoquinolin-3-yl]methyl dihydrogen phosphate] | completely cleaved | ~1.1 | ~1 | ~1 | – | – | – | – | –
2 | CC(C)C[C@H](N)C(=O)OC[C@H]1Cc2c(cccc2C(C)(C)O)[C@H](C)N1C(=O)Cc1c(Cl)ccc2c1c(Cl)nn2C [(II-C), [(1S,3R)-2-[2-(3,5-dichloro-1-methyl-indazol-4-yl)acetyl]-5-(1-hydroxy-1-methyl-ethyl)-1-methyl-3,4-dihydro-1H-isoquinolin-3-yl]methyl (2S)-2-amino-4-methyl-pentanoate] | completely cleaved | – | – | – | – | – | – | – | –
3 | C[C@H]1c2cccc(C(C)(C)O)c2C[C@H](CO)N1C(=O)Cc1c(Cl)ccc2c1c(Cl)nn2C [(Ia), 2-(3,5-dichloro-1-methyl-indazol-4-yl)-1-[(1S,3R)-3-(hydroxymethyl)-5-(1-hydroxy-1-methyl-ethyl)-1-methyl-3,4-dihydro-1H-isoquinolin-2-yl]ethanone] | – | – | < 0.001 | < 0.001 | – | < 0.001 | ~0.0015 (≈ 3.15 µM) | < 0.001 | ~0.004 (≈ 8.4 µM)

More lines, now with the values ahead:

Row | cleavage of prodrug into compound of formula (I) in plasma [1] | Solubility Measurements (mean value) (24 h) ([2]; FaSSIF-V2, pH 6.5, 37° C.) [mg/mL] | solubility at 24 h [2, 3] [mg/mL] | solubility at 24 h [2, 4] [mg/mL] | Solubility Measurements (mean value) (24 h) ([2]; FeSSIF-V2, pH 5.8, 37° C.) [mg/mL] | solubility at 24 h [2, 5] [mg/mL] | solubility at 24 h [2, 6] [mg/mL] | solubility at 24 h [2, 7] [mg/mL] | solubility at 24 h [2, 8] [mg/mL] | Structure (SMILES)
4 | – | >5 | – | – | >5 | > 5 | – | – | – | C[C@H]1c2cccc(C(C)(C)O)c2C[C@H](COP(=O)(O)O)N1C(=O)Cc1c(Cl)ccc2c1c(Cl)nn2C [(II-Ax), [(1S,3R)-2-[2-(3,5-dichloro-1-methyl-indazol-4-yl)acetyl]-5-(1-hydroxy-1-methyl-ethyl)-1-methyl-3,4-dihydro-1H-isoquinolin-3-yl]methyl dihydrogen phosphate]
5 | partially cleaved | – | ~0.85 (≈ 1480 µM) | ~0.04 (≈ 69.5 µM) | – | ~0.07 (≈ 122 µM) | ~0.03 (≈ 52.1 µM) | ~4.8 (≈ 8340 µM) | ~0.9 (≈ 1560 µM) | CC(C)[C@H](N)C(=O)OC[C@H]1Cc2c(cccc2C(C)(C)O)[C@H](C)N1C(=O)Cc1c(Cl)ccc2c1c(Cl)nn2C [(II-B), [(1S,3R)-2-[2-(3,5-dichloro-1-methyl-indazol-4-yl)acetyl]-5-(1-hydroxy-1-methyl-ethyl)-1-methyl-3,4-dihydro-1H-isoquinolin-3-yl]methyl (2S)-2-amino-3-methyl-butanoate]
